# Reference: patent publication US20220152093A1, “OPTIMIZED NUTRIENT SALT COMPOSITION” (priority 2018, published 2022)
# Test system: tender mangoes
# Assay: Preservation of tender mangoes in salt solution, 45 days at room temperature
# Conditions: common salt solution 2.5%, optimized nutrient salt solution 5% (matching saltiness), 25 to 35 degree centigrade
# Description: Two sets of 1000 gm tender mangoes were put in two separate sterile glass bottles. First bottle was filled with common salt solution up to the neck of the bottle and the second bottle was filled with optimized nutrient salt solution prepared by a process as given in example 1 of matching saltiness. Saltiness of optimized nutrient salt is only half of common salt. While the common salt solution used was 2.5% and the optimized nutrient salt solution was 5%. Bottle closed with cap and kept for seasoning for 45 days in room temperature around 25 to 35 degree centigrade.
smiles,measurement,value
[Cl-].[Na+] [common salt],fungal growth at the surface of the solution,thin layer of fungal growth
